Measured values: ChEMBL document CHEMBL5608208, “Design, synthesis of griseofamine A derivatives and development of potent antibacterial agents against MRSA” (Eur J Med Chem, 2024)
In brackets after ≈: the same amount, converted by molar mass. Activity calls are given as the source filed them. No cut-off for these calls is given here.

Experiments:
[1] = tested on: Staphylococcus aureus; experiment: Potency index, ratio of griseofamine A MIC to test compound MIC for antibacterial activity against methicillin resistant Staphylococcus aureus ATCC 43300; format: functional
[2] = Volume of distribution in ICR mouse at 5 mg/kg, po; format: ADME, organism-based; details: in vivo
[3] = tested on: Staphylococcus aureus; experiment: Bactericidal activity against methicillin resistant Staphylococcus aureus ATCC 43300 incubated for 18 to 24 hrs; format: functional; details: time 18-24 hrs
[4] = Acute toxicity in ICR mouse assessed as change in body weight at 2 g/kg, po measured after 7 days; format: organism-based; details: in vivo, 2000 mg/kg, 168 h, time 7 day
[5] = tested on: Staphylococcus aureus; experiment: Drug resistance development in methicillin resistant Staphylococcus aureus […] assessed as increase in MIC value measured after 7 passages by broth microdilution method; format: functional, organism-based
[6] = MRT(0 to infinity) in ICR mouse at 5 mg/kg, po; format: ADME, organism-based; details: in vivo
[7] = tested on: Staphylococcus aureus; experiment: Drug resistance development in methicillin resistant Staphylococcus aureus ATCC 43300 assessed as increase in MIC value measured after 7 passages by broth microdilution method; format: functional, organism-based
[8] = tested on: Staphylococcus aureus; experiment: Bactericidal activity against methicillin resistant Staphylococcus aureus ATCC 33592 at 2.5 times MIC measured after 2 to 24 hrs by time-kill kinetics assay; format: functional; details: time 2-24 hrs
[9] = tested on: Staphylococcus aureus; experiment: Potency index, ratio of vancomycin MIC to test compound MIC for antibacterial activity against methicillin resistant Staphylococcus aureus ATCC 33592; format: functional
[10] = tested on: Staphylococcus aureus; experiment: Antibacterial activity against methicillin resistant Staphylococcus aureus ATCC 33592 assessed as surface collapse at MIC incubated for 1 to 6 hrs by SEM analysis; format: functional, organism-based; details: time 1-6 hrs
[11] = Tmax in ICR mouse at 5 mg/kg, po; format: ADME, organism-based; details: in vivo
[12] = tested on: Staphylococcus aureus; experiment: Drug resistance development in Staphylococcus aureus ATCC 29213 assessed as increase in MIC value measured after 8 passages by broth microdilution method; format: functional
[13] = tested on: Staphylococcus aureus; experiment: Drug resistance development in methicillin resistant Staphylococcus aureus […] assessed as increase in MIC value measured after 8 passages by broth microdilution method; format: functional
[14] = MRT(0 to t) in ICR mouse at 5 mg/kg, po; format: ADME, organism-based; details: in vivo
[15] = Half-life in ICR mouse at 5 mg/kg, po; format: ADME, organism-based; details: in vivo
[16] = AUC(0 to t) in ICR mouse at 5 mg/kg, po; format: ADME, organism-based; details: in vivo
[17] = Half-life in ICR mouse at 1 mg/kg, iv; format: ADME, organism-based; details: in vivo
[18] = tested on: Staphylococcus aureus; experiment: Antibacterial activity against Staphylococcus aureus ATCC 29213 incubated for 18 hrs by serial two-fold dilution method; format: functional
[19] = tested on: Staphylococcus aureus; experiment: Drug resistance development in methicillin resistant Staphylococcus aureus ATCC 43300 assessed as increase in MIC value measured after 8 passages by broth microdilution method; format: functional
[20] = AUC(0 to infinity) in ICR mouse at 5 mg/kg, po; format: ADME, organism-based; details: in vivo
[21] = tested on: Staphylococcus aureus; experiment: Antibacterial activity against methicillin resistant Staphylococcus aureus ATCC 43300 infected in ICR mouse systemic infection model assessed as reduction in bacterial burden in heart at 2.5 mg/kg, ip pretreated with bacteria for 30 mins followed by compound addition and measured for 7 days; format: functional, organism-based; details: time 7.0 day
[22] = tested on: Staphylococcus aureus; experiment: Drug resistance development in Staphylococcus aureus ATCC 29213 assessed as increase in MIC value measured after 7 passages by broth microdilution method; format: functional, organism-based
[23] = tested on: Staphylococcus aureus; experiment: Antibacterial activity against methicillin resistant Staphylococcus aureus ATCC 33592 assessed as leakage of cellular components at MIC incubated for 1 to 6 hrs by SEM analysis; format: functional, organism-based; details: time 1-6 hrs
[24] = Tmax in ICR mouse at 1 mg/kg, iv; format: ADME, organism-based; details: in vivo
[25] = tested on: Staphylococcus aureus; experiment: Antibacterial activity against methicillin resistant Staphylococcus aureus ATCC 43300 incubated for 18 hrs by serial two-fold dilution method; format: functional
[26] = tested on: Staphylococcus epidermidis; experiment: Bactericidal activity against Staphylococcus epidermidis ATCC 12228 incubated for 18 to 24 hrs; format: functional; details: time 18-24 hrs
[27] = tested on: Bacillus subtilis; experiment: Antibacterial activity against Bacillus subtilis CMCC 63501 incubated for 18 hrs by serial two-fold dilution method; format: functional
[28] = Acute toxicity in ICR mouse assessed as aberrant behavior at 2 g/kg, po measured after 7 days; format: organism-based; details: in vivo, 2000 mg/kg, 168 h, time 7 day
[29] = Acute toxicity in ICR mouse assessed as change in food intake at 2 g/kg, po measured after 7 days; format: organism-based; details: in vivo, 2000 mg/kg, 168 h, time 7 day
[30] = tested on: Enterococcus faecium; experiment: Antibacterial activity against Enterococcus faecium ATCC 700221 incubated for 18 hrs by serial two-fold dilution method; format: functional
[31] = tested on: Staphylococcus aureus; experiment: Potency index, ratio of vancomycin MIC to test compound MIC for antibacterial activity against methicillin resistant Staphylococcus aureus ATCC 43300; format: functional
[32] = Acute toxicity in ICR mouse assessed as change in water intake at 2 g/kg, po measured after 7 days; format: organism-based; details: in vivo, 2000 mg/kg, 168 h, time 7 day
[33] = tested on: Staphylococcus aureus; experiment: Potency index, ratio of griseofamine A MIC to test compound MIC for antibacterial activity against methicillin resistant Staphylococcus aureus ATCC 33592; format: functional
[34] = tested on: Staphylococcus aureus; experiment: Antibacterial activity against methicillin resistant Staphylococcus aureus ATCC 43300 infected in ICR mouse systemic infection model assessed as reduction in bacterial burden in kidney at 2.5 mg/kg, ip pretreated with bacteria for 30 mins followed by compound addition and measured for 7 days; format: functional, organism-based; details: time 7.0 day
[35] = tested on: Staphylococcus aureus; experiment: Antibacterial activity against methicillin resistant Staphylococcus aureus ATCC 43300 infected in ip dosed ICR mouse systemic infection model pretreated with bacteria for 30 mins followed by compound addition and measured for 7 days; format: functional, organism-based; details: dose 1.25-5 mg/kg, time 7.0 day
[36] = Bioavailability in ICR mouse at 5 mg/kg, po; format: ADME, organism-based; details: in vivo
[37] = AUC(0 to t) in ICR mouse at 1 mg/kg, iv; format: ADME, organism-based; details: in vivo
[38] = tested on: Staphylococcus aureus; experiment: Antibacterial activity against methicillin resistant Staphylococcus aureus ATCC 43300 infected in ICR mouse systemic infection model assessed as reduction in bacterial burden in liver at 2.5 mg/kg, ip pretreated with bacteria for 30 mins followed by compound addition and measured for 7 days; format: functional, organism-based; details: time 7.0 day
[39] = Volume of distribution in ICR mouse at 1 mg/kg, iv; format: ADME, organism-based; details: in vivo
[40] = tested on: Staphylococcus aureus; experiment: Antibacterial activity against methicillin resistant Staphylococcus aureus ATCC 43300 infected in ICR mouse systemic infection model at 5 mg/kg, ip pretreated with bacteria for 30 mins followed by compound addition and measured for 7 days; format: functional; details: time 7 day
[41] = Cmax in ICR mouse at 5 mg/kg, po; format: ADME, organism-based; details: in vivo
[42] = tested on: Staphylococcus aureus; experiment: Antibacterial activity against methicillin resistant Staphylococcus aureus ATCC 43300 infected in ICR mouse systemic infection model assessed as reduction in bacterial burden in lung at 2.5 mg/kg, ip pretreated with bacteria for 30 mins followed by compound addition and measured for 7 days; format: functional, organism-based; details: time 7.0 day
[43] = tested on: Staphylococcus aureus; experiment: Antibacterial activity against methicillin resistant Staphylococcus aureus ATCC 43300 infected in ICR mouse systemic infection model at 2.5 mg/kg, ip pretreated with bacteria for 30 mins followed by compound addition and measured for 7 days; format: functional; details: time 7 day
[44] = tested on: Cell membrane; experiment: Induction of bacterial cell membrane damage in methicillin resistant Staphylococcus aureus ATCC 33592 assessed as increase in fluorescence intensity at MIC incubated for 2 hrs by PI staining based microplate reader assay; format: cell membranes
[45] = tested on: Staphylococcus aureus; experiment: Bactericidal activity against methicillin resistant Staphylococcus aureus ATCC 33592 incubated for 18 to 24 hrs; format: functional; details: time 18-24 hrs

C/C(O)=C1\C(=O)[C@@H]2Cc3c([nH]c4ccccc34)[C@@H](c3ccc(-c4cc(F)cc(F)c4)cc3)N2C1=O
Ratio [1]: 128
Vd [2]: 21.714 L/kg
MBC [3]: 1 µg/mL (≈ 2.13 µM)
Activity [4]: Non-Toxic
Activity [5]: inactive
MRT inf [6]: 12.7 h
Activity [7]: inactive
Activity [8]: 100%
Ratio [9]: 8
Activity [10]: Active
Tmax [11]: 3.33 h
MIC [12]: 2 µg/mL
MIC [13]: 2 µg/mL
MRT last [14]: 10.6 h
half-life [15]: 7.91 h
AUC(0-t) [16]: 2450 ng·h/mL
half-life [17]: 7.59 h
MIC [18]: 0.031 µg/mL (≈ 0.0659 µM)
MIC [19]: 2 µg/mL
AUC(0-inf) [20]: 2570 ng·h/mL
Activity [21]: Active
Activity [22]: inactive
Activity [23]: Active
Tmax [24]: 1.8 min
MIC [25]: 0.063 µg/mL (≈ 0.134 µM)
MBC [26]: 0.25 µg/mL (≈ 0.531 µM)
MIC [27]: 0.14 µg/mL (≈ 0.298 µM)
Activity [28]: Non-Toxic
Activity [29]: Non-Toxic
MIC [30]: 0.45 µg/mL (≈ 0.956 µM)
Ratio [31]: 8
Activity [32]: Non-Toxic
Ratio [33]: 128
Activity [34]: Active
Activity [35]: Dose-Dependent Effect
bioavailability [36]: 11.6%
AUC(0-t) [37]: 4240 ng·h/mL
Activity [38]: Active
Vd [39]: 2.55 L/kg
Activity [40]: 87.5%
Cmax [41]: 233 ng/mL
Activity [42]: Active
Activity [43]: 75%
Activity [44]: Active
MBC [45]: 0.5 µg/mL (≈ 1.06 µM)
